Data published in PubChem BioAssay AID1963841 (Molecular Pharmacology Branch, DTP, NCI, 2024).

Tested on: 439559-082-T-J2-PDC spheroid viability
Experiment: Anticancer human tumor 439559-082-T-J2-PDC patient-derived colon adenocarcinoma cell line growth inhibition [POLQ]
Conditions: spheroids with HUVEC and MSC; for IC50: curve of first compound; for viability, T/C: stronger effect = lower value
In short: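 Complex spheroid viability model combining PDC tumour cells with endothelial (HUVEC) and MSC stromal cells. Novobiocin, ART-558 or RP6685 were tested singly and in combination with standard and investigational anticancer drugs. Each was titrated in half-log steps from near clinical Cmax, or from 10 microM where Cmax was unknown.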

[1] = second compound 0.0316 µM, first compound 0.0316 µM
[2] = second compound 0.0316 µM, first compound 0.1 µM
[3] = second compound 0.0316 µM, first compound 0.316 µM
[4] = second compound 0.0316 µM, first compound 1 µM
[5] = second compound 0.1 µM, first compound 0.0316 µM
[6] = second compound 0.1 µM, first compound 0.1 µM
[7] = second compound 0.1 µM, first compound 0.316 µM
[8] = second compound 0.1 µM, first compound 1 µM
[9] = second compound 0.316 µM, first compound 0.0316 µM
[10] = second compound 0.316 µM, first compound 0.1 µM
[11] = second compound 0.316 µM, first compound 0.316 µM
[12] = second compound 0.316 µM, first compound 1 µM
[13] = second compound 1 µM, first compound 0.0316 µM
[14] = second compound 1 µM, first compound 0.1 µM
[15] = second compound 1 µM, first compound 0.316 µM
[16] = second compound 1 µM, first compound 1 µM
[17] = second compound 3.16 µM, first compound 0.0316 µM
[18] = second compound 3.16 µM, first compound 0.1 µM
[19] = second compound 3.16 µM, first compound 0.316 µM
[20] = second compound 3.16 µM, first compound 1 µM
[21] = second compound 10 µM, first compound 0.0316 µM
[22] = second compound 10 µM, first compound 0.1 µM
[23] = second compound 10 µM, first compound 0.316 µM
[24] = second compound 10 µM, first compound 1 µM
[25] = second compound 0.0316 µM, first compound 0.00316 µM
[26] = second compound 0.0316 µM, first compound 0.01 µM
[27] = second compound 0.1 µM, first compound 0.00316 µM
[28] = second compound 0.1 µM, first compound 0.01 µM
[29] = second compound 0.316 µM, first compound 0.00316 µM
[30] = second compound 0.316 µM, first compound 0.01 µM
[31] = second compound 1 µM, first compound 0.00316 µM
[32] = second compound 1 µM, first compound 0.01 µM
[33] = second compound 3.16 µM, first compound 0.00316 µM
[34] = second compound 3.16 µM, first compound 0.01 µM
[35] = second compound 10 µM, first compound 0.00316 µM
[36] = second compound 10 µM, first compound 0.01 µM
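Also: spheroids exposed to compounds for seven days before readout.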
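For viability, T/C in this document: 100% = DMSO vehicle control viability.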

CCCS(=O)(=O)Nc1ccc(F)c(C(=O)c2c[nH]c3ncc(-c4ccc(Cl)cc4)cc23)c1F + COC1C(OC(N)=O)C(O)C(Oc2ccc3c(O)c(NC(=O)c4ccc(O)c(CC=C(C)C)c4)c(=O)oc3c2C)OC1(C)C
IC50 (second compound 0.0316 µM): > 10000 nM
IC50 (second compound 0.1 µM): > 10000 nM
IC50 (second compound 0.316 µM): > 10000 nM
IC50 (second compound 1 µM): > 10000 nM
IC50 (second compound 3.16 µM): > 10000 nM
IC50 (second compound 10 µM): > 10000 nM
viability, T/C [1]: 103%
viability, T/C [2]: 109%
viability, T/C [3]: 96.6%
viability, T/C [4]: 95.8%
viability, T/C (second compound 0.0316 µM, first compound 3.16 µM): 99.7%
viability, T/C (second compound 0.0316 µM, first compound 10 µM): 70%
viability, T/C [5]: 108%
viability, T/C [6]: 107%
viability, T/C [7]: 99.9%
viability, T/C [8]: 102%
viability, T/C (second compound 0.1 µM, first compound 3.16 µM): 100%
viability, T/C (second compound 0.1 µM, first compound 10 µM): 67.9%
viability, T/C [9]: 104%
viability, T/C [10]: 106%
viability, T/C [11]: 101%
viability, T/C [12]: 92.9%
viability, T/C (second compound 0.316 µM, first compound 3.16 µM): 94.2%
viability, T/C (second compound 0.316 µM, first compound 10 µM): 65.8%
viability, T/C [13]: 99.2%
viability, T/C [14]: 104%
viability, T/C [15]: 102%
viability, T/C [16]: 103%
viability, T/C (second compound 1 µM, first compound 3.16 µM): 105%
viability, T/C (second compound 1 µM, first compound 10 µM): 68.4%
viability, T/C [17]: 93.7%
viability, T/C [18]: 103%
viability, T/C [19]: 94.3%
viability, T/C [20]: 95.4%
viability, T/C (second compound 3.16 µM, first compound 3.16 µM): 93.1%
viability, T/C (second compound 3.16 µM, first compound 10 µM): 67.9%
viability, T/C [21]: 103%
viability, T/C [22]: 95.2%
viability, T/C [23]: 100%
viability, T/C [24]: 99.2%
viability, T/C (second compound 10 µM, first compound 3.16 µM): 98.3%
viability, T/C (second compound 10 µM, first compound 10 µM): 71.4%

COc1cccc(OCCCN)c1-c1cc(Nc2cnc(C#N)cn2)n[nH]1 + COC1C(OC(N)=O)C(O)C(Oc2ccc3c(O)c(NC(=O)c4ccc(O)c(CC=C(C)C)c4)c(=O)oc3c2C)OC1(C)C
IC50 (second compound 0.0316 µM): 142 nM
IC50 (second compound 0.1 µM): 158 nM
IC50 (second compound 0.316 µM): 145 nM
IC50 (second compound 1 µM): 109 nM
IC50 (second compound 3.16 µM): 133 nM
IC50 (second compound 10 µM): 128 nM
viability, T/C [25]: 87%
viability, T/C [26]: 88.1%
viability, T/C [1]: 70.1%
viability, T/C [2]: 61.4%
viability, T/C [3]: 31.3%
viability, T/C [4]: 17.4%
viability, T/C [27]: 98.5%
viability, T/C [28]: 82%
viability, T/C [5]: 76.4%
viability, T/C [6]: 65.3%
viability, T/C [7]: 30.9%
viability, T/C [8]: 18.3%
viability, T/C [29]: 94.6%
viability, T/C [30]: 90.3%
viability, T/C [9]: 72.3%
viability, T/C [10]: 62%
viability, T/C [11]: 31.7%
viability, T/C [12]: 19.1%
viability, T/C [31]: 105%
viability, T/C [32]: 82.1%
viability, T/C [13]: 72.6%
viability, T/C [14]: 52.9%
viability, T/C [15]: 31.8%
viability, T/C [16]: 16.4%
viability, T/C [33]: 102%
viability, T/C [34]: 85.6%
viability, T/C [17]: 73.6%
viability, T/C [18]: 59.1%
viability, T/C [19]: 30.9%
viability, T/C [20]: 18.2%
viability, T/C [35]: 103%
viability, T/C [36]: 86.8%
viability, T/C [21]: 77%
viability, T/C [22]: 56.4%
viability, T/C [23]: 30.5%
viability, T/C [24]: 17.5%

Cn1ncnc1[C@H]1c2n[nH]c(=O)c3cc(F)cc(c23)N[C@@H]1c1ccc(F)cc1 + COC1C(OC(N)=O)C(O)C(Oc2ccc3c(O)c(NC(=O)c4ccc(O)c(CC=C(C)C)c4)c(=O)oc3c2C)OC1(C)C
IC50 (second compound 0.0316 µM): > 100 nM
IC50 (second compound 0.1 µM): > 100 nM
IC50 (second compound 0.316 µM): > 100 nM
IC50 (second compound 1 µM): > 100 nM
IC50 (second compound 3.16 µM): > 100 nM
IC50 (second compound 10 µM): > 100 nM
viability, T/C (second compound 0.0316 µM, first compound 0.000316 µM): 110%
viability, T/C (second compound 0.0316 µM, first compound 0.001 µM): 95.8%
viability, T/C [25]: 102%
viability, T/C [26]: 99.8%
viability, T/C [1]: 99%
viability, T/C [2]: 95.4%
viability, T/C (second compound 0.1 µM, first compound 0.000316 µM): 110%
viability, T/C (second compound 0.1 µM, first compound 0.001 µM): 108%
viability, T/C [27]: 109%
viability, T/C [28]: 101%
viability, T/C [5]: 99.4%
viability, T/C [6]: 91.1%
viability, T/C (second compound 0.316 µM, first compound 0.000316 µM): 104%
viability, T/C (second compound 0.316 µM, first compound 0.001 µM): 102%
viability, T/C [29]: 103%
viability, T/C [30]: 102%
viability, T/C [9]: 94.1%
viability, T/C [10]: 91.1%
viability, T/C (second compound 1 µM, first compound 0.000316 µM): 108%
viability, T/C (second compound 1 µM, first compound 0.001 µM): 97.1%
viability, T/C [31]: 103%
viability, T/C [32]: 94.2%
viability, T/C [13]: 99.1%
viability, T/C [14]: 99%
viability, T/C (second compound 3.16 µM, first compound 0.000316 µM): 101%
viability, T/C (second compound 3.16 µM, first compound 0.001 µM): 99.6%
viability, T/C [33]: 102%
viability, T/C [34]: 102%
viability, T/C [17]: 96.5%
viability, T/C [18]: 93.5%
viability, T/C (second compound 10 µM, first compound 0.000316 µM): 106%
viability, T/C (second compound 10 µM, first compound 0.001 µM): 93.3%
viability, T/C [35]: 108%
viability, T/C [36]: 96%
viability, T/C [21]: 104%
viability, T/C [22]: 91%
